Legend:
Assay type in all cases: in vivo
[1] = system: rats; experiment: Core and surface body temperature
Experimental: To better assess the effects of the ligands on thermoregulation, we measured both changes in the core (rectal) and surface (ventral fur) temperature. The core temperature was evaluated by a probe (1 mm diameter) that was gently inserted, after lubrication with liquid Vaseline, into the rectum of the rat (to about 2 cm) and left in position until the stabilization of the temperature (about 10 sec; [De Luca et al., 2015]; [Vigolo et al., 2015]). The probe was connected to a Cole Parmer digital thermometer, model 8402. The surface temperature was measured by a Microlife FR 1DZ1 digital infrared thermometer, placed 1 cm from the surface of the abdomen of the rat ([Vigolo et al., 2015]). Core and surface body temperatures were measured at 0, 15, 35, 65, 125, and 190 min.

[2] = system: rats; experiment: Visual object response test
Description: Visual response was verified by two behavioral tests that evaluated the ability of the rat to capture visual information even when stationary (the visual object response) or when moving (the visual placing response). The visual object response test was used to evaluate the ability of the rat to see an object approaching from the front or the side, inducing the animal to shift or turn its head or to retreat (modified from [Ossato et al., 2015]; [Marti et al., 2019]). For the frontal visual response, a white horizontal bar was moved frontally to the rat’s head; the maneuver was repeated three times. For the lateral visual response, a small dentist’s mirror was moved into the rat’s field of view in a horizontal arc until the stimulus was between the rat’s eyes. The procedure was conducted bilaterally and was repeated three times. The score assigned was a value of 1 if there was a reflection in the rat movement or 0 if not. The total value was calculated by adding the scores obtained in the frontal with that obtained in the lateral visual object response (overall score 9). Evaluation of the visual object response was measured at 0, 10, 30, 60, 120, and 180 min post-injection. The visual placing response test was performed using a tail suspension-modified apparatus able to bring the rat toward the floor at a constant speed of 10 cm/sec (modified from [Ossato et al., 2015]; [Marti et al., 2019]). The downward movement of the rat was videotaped. Frame-by-frame analysis allowed us to evaluate the beginning of the reaction of the rat while it was close to the floor. When the rat started the reaction, an electronic ruler evaluated the perpendicular distance in millimeters between the eyes of the rat to the floor. The naïve rats perceived the floor and prepared for contact at a distance of about 27 ± 4.5 mm. Evaluation of the visual placing response was measured at 0, 15, 35, 65, 125, and 190 min post-injection.

[3] = system: rats; experiment: Tail pinch test (acute mechanical nociception)
Experimental: Acute mechanical nociception was evaluated using the tail pinch tests (modified by [Vigolo et al., 2015]). A special rigid probe connected to a digital dynamometer (ZP-50N, IMADA, Japan) was gently placed on the tail (in the distal portion), and progressive pressure was applied. When the rat flicked its tail, the pressure was stopped, and the digital instrument saved the maximum peak of weight supported (g/force). A cut-off (500 g/force) was set to avoid tissue damage. The test was repeated three times, and the final value was calculated with the average of three obtained scores. Acute mechanical nociception was measured at 0, 20, 40, 70, 140, and 195 min post-injection.

[4] = system: rats; experiment: Acoustic response test
Experimental: Acoustic response measures the reflex of the rat in reply to an acoustic stimulus produced behind the animal. Four acoustic stimuli of different intensities and frequencies were tested (see [Marti et al., 2019]). Each sound test was repeated three times, giving a value of 1 if there was a response and 0 if not present, for a total score of 3 for each sound. The acoustic total score was calculated by adding scores obtained in the four tests (overall score 12). Evaluation of the […] was measured at 0, 10, 30, 60, 120, and 180 min post-injection.

[5] = system: rats; experiment: Conditioned place preference paradigm
Description: The CPP chambers consisted of two equally sized compartments interconnected by a guillotine door, adopting a classical conditioning procedure that has been successfully used to assess the rewarding properties of several drugs of abuse. The compartments are differentiated by both visual and tactile cues: the color of the walls in each compartment (white or black) and the texture of the floors (wooden flat or metal wired). The box was placed in a dimly illuminated room. Place conditioning morning sessions ran from 8:30 a.m. to noon, while afternoon sessions ran from 2:30 p.m. to 6 p.m.
According to the conditioned place preference paradigm, on day 0 (pre-test), rats freely explored the two compartments for 15 min, and the time spent in each compartment during the exploratory period was measured. Rats that spent 60–70% of the total time on one side were excluded from the experiment. We used an unbiased-like protocol and assigned the drug-paired compartment randomly. On days 1–3 (conditioning phase), male Sprague-Dawley rats (n = 24) were divided into three groups (n = 8 per group) and given injections of AKB48 (0.1 or 0.5 mg/kg) or vehicle twice daily (9:00 a.m. to 7:00 p.m.) and confined to one compartment for 30 min for 3 days. During these conditioning trials, the animals developed an association between the subjective state produced by the drug and the environmental cues present in the compartment in which they received the drug. On day 4 (test day), rats were allowed to explore the two compartments freely for 15 min, and the time spent in each compartment during the exploratory period was measured.
To evaluate if the aversive effect obtained with the higher dose of AKB48 (0.5 mg/kg) was mediated by activation of CB1 cannabinoid receptors, male Sprague-Dawley rats (n = 32) were divided into four groups (n = 8 per group). Group 1 received AKB48 vehicle in both compartments and served as a control. […] CB1 antagonist was injected 20 min before the agonist AKB48, which was given 10 min prior to the test.

[6] = AM251 1 mg/kg i.p. before AKB48 3 mg/kg i.p.

Row | SMILES | time at which the core temperature effect was evident ([1]; AKB48 3 mg/kg i.p.) [min] | surface body temperature ([1]; AKB48 0.1–3 mg/kg i.p.) | core body temperature ([1]; AKB48, only at 3 mg/kg i.p.) | persistence of the reduction of visual object response ([2]; AKB48 0.3 mg/kg i.p.) | visual object response ([2]; AKB48 0.1–3.0 mg/kg i.p., 180 min observation) | persistence of the reduction of visual object response ([2]; AKB48 0.5 and 3.0 mg/kg i.p.) | threshold to acute mechanical pain stimulus (tail pinch test) ([3]; AKB48 0.1–3 mg/kg i.p.) | acoustic response ([4]; AKB48, only at the highest dose (3 mg/kg i.p.)) | persistence of the reduction of acoustic response ([4]; AKB48 highest dose (3 mg/kg i.p.)) | conditioned place preference ([5]; AKB48 0.1 mg/kg) | conditioned place preference ([5]; AKB48 0.5 mg/kg) | response to AM251 alone in the body temperature section ([1]; AM251 1 mg/kg i.p. alone) | hypothermia induced by AKB48, after AM251 pre-treatment [1, 6] | visual object response, AM251 alone ([2]; AM251 1 mg/kg i.p. alone) | inhibition of visual object response induced by AKB48, after AM251 pre-treatment [2, 6] | threshold to acute mechanical pain stimuli, AM251 alone ([3]; AM251 1 mg/kg i.p. alone) | AKB48 effect on mechanical pain threshold, after AM251 pre-treatment ([3]; AM251 1 mg/kg i.p. before AKB48 3 mg/kg) | acoustic response, AM251 alone ([4]; AM251 1 mg/kg i.p. alone (data not shown)) | inhibition of acoustic response induced by AKB48, after AM251 pre-treatment [4, 6] | aversive effect of AKB48 on place preference, with AM251 ([5]; AM251 1 mg/kg i.p. + AKB48 0.5 mg/kg)
1 | CCCCCn1nc(C(=O)NC23CC4CC(CC(C4)C2)C3)c2ccccc21 [AKB48, N-(1-adamantyl)-1-pentyl-1H-indazole-3-carboxamide] | 65 | did not affect | reduced | transient | dose-dependently reduced | up to 180 min | slightly increased | reduced | up to 120 min | ineffective | significant aversive effect |  |  |  |  |  |  |  |  | 
2 | Cc1c(C(=O)NN2CCCCC2)nn(-c2ccc(Cl)cc2Cl)c1-c1ccc(I)cc1 [AM251, 1-(2,4-dichlorophenyl)-5-(4-iodophenyl)-4-methyl-N-(piperidin-1-yl)-1H-pyrazole-3-carboxamide, reference compound] |  |  |  |  |  |  |  |  |  |  |  | did not alter | prevented | did not alter | prevented | did not alter | prevented | did not alter | prevented | blocked
